# In article PMC8387461, “T cell receptor recognition of hybrid insulin peptides bound to HLA-DQ8” (Nature Communications, 2021):
# Assays:
# CD4+ T cell clone A1.9 = assay: T cell stimulation assay, IFNγ ELISA, clone A1.9; assay type: cell-based, human; conditions: primary clone A1.9, APC EBV-KJ, 24 h, 31-mer C-peptide versus 15mer HIP titration
# Experimental: Fig. 2 Comparison of the stimulatory capacity of full-length proinsulin C-peptide and HIP on T1D CD4 + T cell clones. […] Titration of full-length 31-mer C-peptide ([…], (open circles) and 15mer C-peptide-IAPP2 HIP ([…] (filled circles). Antigen presenting cells (APC) were the EBV line, EBV-KJ, (2 × 10^4 cells/well). APC were cultured for 24 h with the same number (2 × 10^4 cells/well) of the primary CD4 + T-cell clone and the peptide concentration indicated. T-cell response to peptide were indicated by secretion of IFNγ which was measured in triplicate by ELISA and reported as pg/ml. Mean and standard deviations of triplicate IFNγ measurements are shown. Results are representative of two experiments for each clone.
# For primary T1D CD4+ T cell clones, cells were thawed and used directly in functional assays. For T cell stimulation assays, cloned CD4+ T cells were incubated with BLCL KJ (; HLA-DQ8 + : HLA-DQA1*03:01, HLA-DQB1*03:02), as APCs, together with synthetic peptides. For the alanine scan experiments, each peptide was added to a final concentration of 10 μM. T cell response to antigen was measured as interferon gamma (IFNγ) secretion into the culture media. The IFNγ concentration in the culture media was determined by ELISA (Biolegend).
# Supplementary Figure 8. […]
# type) at each position P-3 to P12 are shown. IFNγ was measured in triplicate by ELISA, concentrations are shown in pg/ml. […]
# HLA-DQ8 [1] = assay: Size exclusion chromatography, aggregate versus monomer of HLA-DQ8-peptide; assay type: physicochemical, human; conditions: SEC, data not shown
# Description: The proinsulin C-peptide epitope (PI40-54 […]; predicted binding register in bold) lacks both a preferred acidic residue at P9 and aliphatic residue at P4, whereas HIP ([…]) lacks the preferred P4 residue. […] To overcome this, as undertaken previously with a modified B:11-23 peptide and HLA-DQ8[22], we engineered a construct with a disulfide bond between p11 of the HIP peptide or proinsulin C-peptide and HLA-DQ8α I72C to produce HLA-DQ8αΙ72C-CpepL11C (HLA-DQ8-CpepL11C; […]; predicted binding register in bold, P11Cys in italics) and HLA-DQ8αΙ72C-HIPL11C (HLA-DQ8-HIPL11C; […]; predicted binding register in bold, proinsulin C-peptide derived underlined, IAPP2 derived bold italics and P11Cys italics).
# T cells = conditions: HIP from MHC-II peptidome of pancreatic islets and lymph nodes of NOD mice; cited from earlier work
# T1D3 T cell clone = conditions: cited from earlier work
# Description: (§1) Yang et al.[39] described a TRBV5-1^+ HLA-DQ8 restricted T cell clone isolated by insulin B:9-23 peptide (B:9-23 […]) tetramer staining. […] The set of mutations comprised P1AtoE, P6CtoA and P9RtoE and P11FtoC ([…]; mutated residues in italics, P1-P9 register in bold)[22],[24],[39]. This engineered epitope was used as a model put forw ...
# HLA-DQ8 [2] = conditions: cited from earlier work
# Description: as §1
substance,measurement,setting,value
"EAEDLQVGQVELGGGPGAGSLQPLALEGSLQ [proinsulin C-peptide, full-length 31-mer proinsulin C-peptide, reference compound]",response of clone to HIP versus proinsulin C-peptide,CD4+ T cell clone A1.9,responds equally to proinsulin C-peptide or HIP
"GQVELGGGPGAGSLQ [PI40-54, reference compound]",stability of HLA-DQ8 complex (ratio of aggregate versus monomer),HLA-DQ8 [1],unstable HLA-DQ8 binary complexes
LQTLAL–NAARD [proinsulin C-peptide-IAPP2 HIP from NOD mice],T cell autoreactivity,T cells,had T cell autoreactivity
LVEELYLVAGEEGC [engineered insulin B:9-23 peptide],reactivity of / recognition by TRBV5-1+ T1D3,T1D3 T cell clone,recognised by the TRBV5-1^+ T1D3 TCR
SHLVEALYLVCGERG [B:9-23],affinity for HLA-DQ8,HLA-DQ8 [2],poor affinity
same,reactivity of / recognition by TRBV5-1+ T1D3,T1D3 T cell clone,low reactivity
